Several values for one entry are separate records, joined by “and”; a condition that tells them apart may be missing. Equal entries are not always repeated. Where two headings read alike, the source gives them in different places.
Experiments:
[1] = tested on: Male Swiss–Webster mice; experiment: Locomotor activity; assay type: in vivo, mouse
[2] = tested on: rats trained to discriminate DMT (5 mg/kg) from saline; assay type: in vivo, rat; conditions: for Dose(s) that decreased response rate: rat, in vivo
[3] = tested on: rats trained to discriminate DOM (0.5 mg/kg) from saline; assay type: in vivo, rat; conditions: for Maximum %DAR (drug-appropriate responding): i.p., at dose of maximum DAR
[4] = tested on: rats trained to discriminate LSD (0.1 mg/kg) from saline; assay type: in vivo, rat; conditions: for Rate of responding at dose of maximum DAR / Maximum %DAR (drug-appropriate responding): LSD-trained rats; for Maximum %DAR (drug-appropriate responding): i.p., at dose of maximum DAR
[5] = tested on: rats trained to discriminate MDMA (1.5 mg/kg) from saline; assay type: in vivo, rat; conditions: for Rate of responding at dose of maximum DAR / Maximum %DAR (drug-appropriate responding): MDMA-trained rats; for Maximum %DAR (drug-appropriate responding): i.p., at dose of maximum DAR
[6] = tested on: rats trained to discriminate METH (1 mg/kg) from saline; assay type: in vivo, rat; conditions: for Rate of responding at dose of maximum DAR: METH-trained rats
[7] = target: T1, human 5-HT1A receptor (Homo sapiens, UniProt P08908); experiment: [3H]8-OH-DPAT binding, HEK-5-HT1A
T1 sequence (P08908 1-422): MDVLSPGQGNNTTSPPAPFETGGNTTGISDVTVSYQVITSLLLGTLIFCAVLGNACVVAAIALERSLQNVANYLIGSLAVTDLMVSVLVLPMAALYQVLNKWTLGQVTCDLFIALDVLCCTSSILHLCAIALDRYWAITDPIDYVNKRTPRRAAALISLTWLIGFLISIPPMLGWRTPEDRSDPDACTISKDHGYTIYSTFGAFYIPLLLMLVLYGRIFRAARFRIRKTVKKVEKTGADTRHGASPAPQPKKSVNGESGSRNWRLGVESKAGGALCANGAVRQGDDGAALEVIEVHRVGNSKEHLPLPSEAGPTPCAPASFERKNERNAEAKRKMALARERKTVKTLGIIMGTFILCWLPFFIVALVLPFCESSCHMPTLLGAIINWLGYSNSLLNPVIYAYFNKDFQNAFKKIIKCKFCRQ

[8] = target: T1, human 5-HT1A receptor; experiment: [35S]GTPγS binding functional assay, HEK-5-HT1A; assay type: biochemical; conditions: for Emax: read-out: 5-HT1A Function [35S]GTPγS Binding % maximal effect
[9] = target: T2, human 5-HT2A receptor (Homo sapiens, UniProt P28223); experiment: [125I]DOI binding, HEK-5-HT2A cells
[10] = target: T2, human 5-HT2A receptor; experiment: [3H]AA release from HEK-5-HT2A cells; assay type: cell-based; conditions: for Emax: read-out: 5-HT2A Function [3H]AA release % maximal effect
[11] = target: T2, human 5-HT2A receptor; experiment: IP-1 formation, HEK-5-HT2A cells; assay type: cell-based; conditions: for Emax: read-out: 5-HT2A Function IP-1 formation % maximal effect
[12] = target: T3, human 5-HT2C receptor (Homo sapiens, UniProt P28335); experiment: biochemical; assay type: binding
T3 sequence (P28335 33-458): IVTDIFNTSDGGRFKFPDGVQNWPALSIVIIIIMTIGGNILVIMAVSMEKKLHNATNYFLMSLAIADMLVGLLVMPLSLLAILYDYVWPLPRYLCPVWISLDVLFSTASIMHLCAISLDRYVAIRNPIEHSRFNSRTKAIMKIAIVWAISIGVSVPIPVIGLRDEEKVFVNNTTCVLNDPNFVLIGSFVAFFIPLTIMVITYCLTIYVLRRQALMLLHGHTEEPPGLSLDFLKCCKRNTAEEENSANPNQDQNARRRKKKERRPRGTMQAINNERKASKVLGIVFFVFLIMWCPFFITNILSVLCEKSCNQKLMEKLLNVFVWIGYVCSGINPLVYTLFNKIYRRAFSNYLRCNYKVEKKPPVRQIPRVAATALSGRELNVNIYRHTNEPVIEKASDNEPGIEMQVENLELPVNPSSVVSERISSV

[13] = target: T3, human 5-HT2C receptor; experiment: cell-based; conditions: for Emax: read-out: 5-HT2C Function IP-formation % maximal effect
[14] = target: T4, hDAT (Homo sapiens, UniProt Q01959); experiment: [125I]RTI-55 binding, HEK-hDAT cells
[15] = target: T4, hDAT; experiment: [3H]Dopamine uptake, HEK-hDAT cells; assay type: cell-based
[16] = target: T4, hDAT; experiment: [3H]Dopamine release, HEK-hDAT cells; assay type: cell-based; conditions: HEK-hDAT cells
[17] = target: T5, hSERT (Homo sapiens, UniProt P31645); experiment: [125I]RTI-55 binding, HEK-hSERT cells
[18] = target: T5, hSERT; experiment: [3H]Serotonin uptake, HEK-hSERT cells; assay type: cell-based
[19] = target: T5, hSERT; experiment: [3H]Serotonin release, HEK-hSERT cells; assay type: cell-based
[20] = target: T6, hNET (Homo sapiens, UniProt P23975); experiment: biochemical; assay type: binding
[21] = target: T6, hNET; experiment: cell-based
[22] = target: T6, hNET; experiment: cell-based; remark: listed apart in the source
[23] = tested on: Male Sprague-Dawley rats; experiment: Adverse effects observed during drug discrimination test sessions; assay type: in vivo, rat; conditions: 25 mg/kg i.p.
[24] = DMT-trained rats, 15 min pretreatment

T6 sequence (P23975 whole entry): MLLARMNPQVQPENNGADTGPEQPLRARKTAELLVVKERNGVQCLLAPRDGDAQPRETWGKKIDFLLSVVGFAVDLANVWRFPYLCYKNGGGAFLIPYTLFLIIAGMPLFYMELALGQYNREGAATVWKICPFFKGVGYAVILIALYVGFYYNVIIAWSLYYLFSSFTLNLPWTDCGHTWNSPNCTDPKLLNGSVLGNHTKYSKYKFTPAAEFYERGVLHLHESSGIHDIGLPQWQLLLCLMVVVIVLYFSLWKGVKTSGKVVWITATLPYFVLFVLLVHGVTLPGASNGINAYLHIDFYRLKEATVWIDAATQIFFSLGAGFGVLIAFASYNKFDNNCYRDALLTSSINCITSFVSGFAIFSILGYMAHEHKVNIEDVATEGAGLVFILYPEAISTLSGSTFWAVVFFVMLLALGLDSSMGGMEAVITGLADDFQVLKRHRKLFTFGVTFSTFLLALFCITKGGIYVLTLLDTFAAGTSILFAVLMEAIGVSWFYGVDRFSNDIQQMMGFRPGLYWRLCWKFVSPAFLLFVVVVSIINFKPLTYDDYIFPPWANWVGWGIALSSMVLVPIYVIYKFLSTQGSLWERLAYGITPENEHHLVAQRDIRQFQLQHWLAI
T4 sequence (Q01959 whole entry): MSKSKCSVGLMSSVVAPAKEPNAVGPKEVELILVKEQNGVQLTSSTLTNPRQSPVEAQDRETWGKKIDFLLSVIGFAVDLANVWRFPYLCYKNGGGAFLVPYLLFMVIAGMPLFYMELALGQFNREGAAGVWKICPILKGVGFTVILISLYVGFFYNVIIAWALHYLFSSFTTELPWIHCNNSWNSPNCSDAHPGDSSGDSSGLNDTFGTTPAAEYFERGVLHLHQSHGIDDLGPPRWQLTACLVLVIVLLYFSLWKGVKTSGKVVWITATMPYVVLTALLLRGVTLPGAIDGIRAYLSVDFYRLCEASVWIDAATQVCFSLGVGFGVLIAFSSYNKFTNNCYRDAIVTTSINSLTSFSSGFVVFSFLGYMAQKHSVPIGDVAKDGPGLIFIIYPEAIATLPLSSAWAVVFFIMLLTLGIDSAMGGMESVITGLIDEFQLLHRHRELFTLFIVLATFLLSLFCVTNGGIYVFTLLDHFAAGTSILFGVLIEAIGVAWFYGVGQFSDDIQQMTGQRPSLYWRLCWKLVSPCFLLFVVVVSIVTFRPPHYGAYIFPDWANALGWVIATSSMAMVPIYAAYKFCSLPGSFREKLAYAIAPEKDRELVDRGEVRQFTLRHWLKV
T5 sequence (P31645 whole entry): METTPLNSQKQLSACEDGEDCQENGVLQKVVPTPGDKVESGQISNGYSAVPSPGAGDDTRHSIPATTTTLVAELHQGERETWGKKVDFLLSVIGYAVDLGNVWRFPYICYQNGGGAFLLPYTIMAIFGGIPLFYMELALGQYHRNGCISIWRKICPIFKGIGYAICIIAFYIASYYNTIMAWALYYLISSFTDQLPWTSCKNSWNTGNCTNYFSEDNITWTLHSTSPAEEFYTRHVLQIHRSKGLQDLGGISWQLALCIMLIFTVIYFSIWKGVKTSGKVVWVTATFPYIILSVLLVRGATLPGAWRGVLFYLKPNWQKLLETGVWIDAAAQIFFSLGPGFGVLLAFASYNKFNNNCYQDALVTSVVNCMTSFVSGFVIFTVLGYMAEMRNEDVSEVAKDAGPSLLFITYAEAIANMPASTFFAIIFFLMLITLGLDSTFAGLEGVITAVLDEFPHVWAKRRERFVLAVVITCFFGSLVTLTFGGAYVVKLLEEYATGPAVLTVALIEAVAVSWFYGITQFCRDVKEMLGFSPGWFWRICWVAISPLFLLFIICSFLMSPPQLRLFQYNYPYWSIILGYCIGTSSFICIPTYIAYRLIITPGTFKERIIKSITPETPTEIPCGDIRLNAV
T2 sequence (P28223 whole entry): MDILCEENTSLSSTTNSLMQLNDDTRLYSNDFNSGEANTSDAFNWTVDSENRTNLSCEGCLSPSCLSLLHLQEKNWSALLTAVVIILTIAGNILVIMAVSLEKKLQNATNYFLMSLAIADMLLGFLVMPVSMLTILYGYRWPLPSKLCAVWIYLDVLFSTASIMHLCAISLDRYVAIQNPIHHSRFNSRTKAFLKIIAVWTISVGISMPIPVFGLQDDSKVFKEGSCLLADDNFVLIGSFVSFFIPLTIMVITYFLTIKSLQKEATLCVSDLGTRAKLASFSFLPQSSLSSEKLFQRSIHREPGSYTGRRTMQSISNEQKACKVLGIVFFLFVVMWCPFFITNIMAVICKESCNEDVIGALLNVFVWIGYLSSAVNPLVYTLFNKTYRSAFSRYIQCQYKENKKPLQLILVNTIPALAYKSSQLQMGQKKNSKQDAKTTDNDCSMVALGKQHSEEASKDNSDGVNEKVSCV

## COc1cc(CC(C)N)c(OC)cc1Cl (centres unmarked) [DOC, 2,5-Dimethoxy-4-chloroamphetamine]
[1]; mice, i.p.
  Duration of depressant effects: 30 to 80 min
  Onset of depressant effects (within, after injection): ≤ 10 min
[2]; [24]
  Rate of responding at dose of maximum DAR: 0.354±0.125 resp/s
[2]; DMT-trained rats, 60 min pretreatment
  Rate of responding at dose of maximum DAR: 0.777±0.095 resp/s
[2]; DMT-trained rats, i.p., 60 min pretreatment, at dose of maximum DAR
  Maximum %DAR (drug-appropriate responding): 83±17 %
[2]
  Dose(s) that decreased response rate: ≥ 1 mg/kg
[3]; 15 min pretreatment
  Rate of responding at dose of maximum DAR: 0.708±0.072 resp/s
  Maximum %DAR (drug-appropriate responding): 83±17 %
[3]; 60 min pretreatment
  Rate of responding at dose of maximum DAR: 0.493±0.058 resp/s
  Maximum %DAR (drug-appropriate responding): 87±13 %
[4]; 15 min pretreatment
  Rate of responding at dose of maximum DAR: 0.402±0.049 resp/s
  Maximum %DAR (drug-appropriate responding): 81±16 %
[4]; 60 min pretreatment
  Rate of responding at dose of maximum DAR: 0.410±0.139 resp/s
  Maximum %DAR (drug-appropriate responding): 95±3 %
[5]; 15 min pretreatment
  Rate of responding at dose of maximum DAR: 0.449±0.104 resp/s
[5]; 60 min pretreatment
  Rate of responding at dose of maximum DAR: 0.356±0.141 resp/s
  Maximum %DAR (drug-appropriate responding): 60% and 60±24 ^2%
[6]; 15 min pretreatment
  Rate of responding at dose of maximum DAR: 0.876±0.330 resp/s
[6]; 60 min pretreatment
  Rate of responding at dose of maximum DAR: 0.276±0.098 resp/s
[7]
  Ki: > 9200 nM
[8]
  EC50: > 10000 nM
  Emax: < 10%
[9]
  Ki: 4 ± 0.45 nM
[10]
  EC50: 2.91 ± 0.66 nM
  Emax: 81 ± 16%
[11]
  EC50: 10.5 ± 2.6 nM
  Emax: 102 ± 4.2%
[12]
  Ki: 3.57 ± 0.56 nM
[13]
  EC50: 14.6 ± 3 nM
  Emax: 97 ± 19%
[14]
  Ki: > 10000 nM
[15]
  IC50: > 10000 nM
[16]
  [3H]Dopamine release % METH maximal effect: ND Minimal
[17]
  Ki: > 10000 nM
[18]
  IC50: > 8600 nM
[19]
  [3H]Serotonin release % PCA maximal effect: ND Minimal
[20]
  Ki: > 7700 nM
[21]
  IC50: > 8400 nM
[22]
  [3H]NE release % METH maximal effect: ND Minimal

## COc1cc(CCN)c(OC)cc1Cl [2C-C, 2,5-dimethoxy-4-chlorophenethylamine]
[1]; 100 mg/kg i.p., at 30 min
  Convulsions (mice affected/tested): 2/8
  Tremors (mice affected/tested): 6/8
[1]; 100 mg/kg i.p., within 120 min
  Lethality (mice): 1/8
[1]; mice, i.p.
  Onset of depressant effects (within, after injection): ≤ 10 min
[2]; [24]
  Rate of responding at dose of maximum DAR: 0.235±0.098 resp/s
[2]
  Dose(s) that decreased response rate: 10 mg/kg
[3]; 15 min pretreatment
  Rate of responding at dose of maximum DAR: 0.366±0.070 resp/s
  Maximum %DAR (drug-appropriate responding): 82±16 %
[4]; 15 min pretreatment
  Rate of responding at dose of maximum DAR: 0.200±0.079 resp/s
  Maximum %DAR (drug-appropriate responding): 75% and 75±25 ^2%
[4]; rat, in vivo
  Dose(s) that decreased response rate: 10 mg/kg
[5]; 15 min pretreatment
  Rate of responding at dose of maximum DAR: 0.244±0.086 resp/s
  Maximum %DAR (drug-appropriate responding): 89±11 %
[5]; rat, in vivo
  Dose(s) that decreased response rate: 2.5 mg/kg
[6]; 15 min pretreatment
  Rate of responding at dose of maximum DAR: 0.156±0.096 resp/s
[6]; rat, in vivo
  Dose(s) that decreased response rate: 25 mg/kg
[23]
  Reddening of the extremities (rats affected/tested): 3/3
  Salivation (rats affected/tested): 1/3
[7]
  Ki: 740 ± 170 nM
[8]
  EC50: > 10000 nM
  Emax: < 25%
[9]
  Ki: 5.47 ± 0.68 nM
[10]
  EC50: 13.9 ± 6.1 nM
  Emax: 64.2 ± 2.2%
[11]
  EC50: 40.1 ± 4.7 nM
  Emax: 102 ± 5.5%
[12]
  Ki: 5.4 ± 1.2 nM
[13]
  EC50: 24.2 ± 5.6 nM
  Emax: 93.5 ± 6.5%
[14]
  Ki: > 10000 nM
[15]
  IC50: > 10000 nM
[16]
  [3H]Dopamine release % METH maximal effect: ND Minimal
[17]
  Ki: > 10000 nM
[18]
  IC50: > 9600 nM
[19]
  [3H]Serotonin release % PCA maximal effect: ND Minimal
[20]
  Ki: > 7600 nM
[21]
  IC50: > 9500 nM
[22]
  [3H]NE release % METH maximal effect: ND Minimal
